The values that follow come from patent US20230242948A1, “OLEIC ACID PRODUCED FROM MICROORGANISM AND METHOD FOR PRODUCING OLEIC ACID USING MICROORGANISM” (KOREA INSTITUTE OF SCIENCE AND TECHNOLOGY, priority 2022, published 2023).

Common to all, as to format: cell-based
Test [1] has as its system transformed Yarrowia lipolytica. As to the kind of experiment: Oleic acid production depending on concentration of added hexanoic acid, glucose and xylose medium (Test Example 2). Particulars: for oleic acid concentration increased by / oleic acid content increased by / oleic acid concentration: 168 hours; for oleic acid concentration increased by / oleic acid content increased by: vs Comparative Example 3; for oleic acid concentration: 0.377 g/L without hexanoic acid. As for the experimental part:
Specifically, wild-type Yarrowia lipolytica was transformed in the same manner as in Example 2 and hexanoic acid at 0 g/L (Comparative Example 3), 0.2 g/L (Example 3), 0.6 g/L (Example 4) or 1 g/L (Example 5) was added to a minimal medium containing 20 g/L glucose and 10 g/L xylose as carbon sources (20 g/L glucose, 10 g/L xylose, 6.7 g/L yeast nitrogen base, CSM-ura (MP Biomedicals, Solon, USA), pH 6.8 potassium phosphate buffer). Then, after inoculating the transformed microorganism to the medium, shaking culture was conducted at 28° C. and 200 rpm. After culturing for 168 hours, the microorganism was separated from the culture through centrifugation and the amount of produced lipids was measured from the separated strain. The amount of produced oleic acid was calculated through lipid assay and the amount of glucose and xylose consumed as carbon sources was measured from the separated culture.

Test [2] deals with wild-type Yarrowia lipolytica (ATCC MYA-2613). As to the kind of experiment: Culture of wild-type lipid-producing microorganism in glucose minimal medium with or without hexanoic acid (Test Example 1). Particulars: 1 g/L hexanoic acid. As to the method:
As an exemplary embodiment of the present disclosure, wild-type Yarrowia lipolytica (microorganism accession number ATCC MYA-2613) was inoculated to a minimal medium containing glucose as a carbon source (20 g/L glucose, 6.7 g/L yeast nitrogen base, CSM-ura (MP Biomedicals, Solon, USA), pH 6.8 potassium phosphate buffer) and supplemented with 1 g/L hexanoic acid. Then shaking culture was conducted at 28° C. and 200 rpm. After culturing for 144-168 hours, the microorganism was separated from the culture through centrifugation.
After inoculating wild-type Yarrowia lipolytica (microorganism accession number ATCC MYA-2613) to a minimal medium containing glucose as a carbon source (20 g/L glucose, 6.7 g/L yeast nitrogen base, CSM-ura (MP Biomedicals, Solon, USA), pH 6.8 potassium phosphate buffer), shaking culture was conducted at 28° C. and 200 rpm. After culturing for 144-168 hours, the microorganism was separated from the culture through centrifugation.
(§1) In order to investigate the consumption of the carbon source in the medium and the content of the produced lipids depending on the addition of hexanoic acid during the culturing of the lipid-producing microorganisms, the amount of biomass (dry cell weight) and lipids produced from the microorganisms isolated in Examples 1-2 and Comparative Examples 1-2 was measured. The amount of produced oleic acid was calculated through lipid assay and the amount of consumed glucose was measured form the separated cultures.

Test [3] concerns recombinant Yarrowia lipolytica. As to the kind of experiment: Culture of recombinant lipid-producing microorganism (peroxisomal biogenesis factor 10 deleted, diacylglycerol acyltransferase overexpressed) in glucose minimal medium with or without hexanoic acid (Test Example 1). As for the experimental part: (§2) As an exemplary embodiment of the present disclosure, after deleting peroxisomal biogenesis factor 10 (SEQ ID NO 1), which is a lipid degradation-related gene, from the wild-type Yarrowia lipolytica (microorganism accession number ATCC MYA-2613) of Example 1 using the CRISPR/Cas9 system, a lipid-producing microorganism was prepared by overexpressing diacylglycerol acyltransferase, which is a key gene in a lipid-producing metabolic pathway, using a vector (pMCS-12TEF-DGA1-CYC1t, SEQ ID NO 3) comprising a UAS1B enhancer, a TEF (translational elongation factor) promoter and a gene encoding diacylglycerol acyltransferase (SEQ ID NO 2). Then, after inoculating the microorganism to a minimal medium containing glucose as a carbon source (20 g/L glucose, 6.7 g/L yeast nitrogen base, CSM-ura (MP Biomedicals, Solon, USA), pH 6.8 potassium phosphate buffer) and supplemented with 1 g/L hexanoic acid, shaking culture was conducted at 28° C. and 200 rpm. After culturing for 144-168 hours, the microorganism was separated from the culture through centrifugation.
as §2, with “After” for “As an exemplary embodiment of the present disclosure, after”, “buffer),” for “buffer) and supplemented with 1 g/L hexanoic acid,”
as §1

[4] abbreviates: Example 3, 0.2 g/L hexanoic acid.
The mark [5] stands for this setting: Example 4, 0.6 g/L hexanoic acid.

As for `CCCCCC(=O)O` [hexanoic acid], the “oleic acid concentration increased by” value in test [1] (setting [4]) was determined as 10.5%; in test [1] (setting [5]) it was 40.3%; in test [1] (Example 5, 1 g/L hexanoic acid) it was 61.2%. Further, the “oleic acid content increased by” value came out at 27.4% in test [1] (setting [4]); 40.1% in test [1] (setting [5]); 52.1% in test [1] (Example 5, 1 g/L hexanoic acid). The oleic acid concentration in test [1] (setting [4]) worked out at 0.417 g/L; in test [1] (setting [5]), 0.529 g/L; in test [1] (Example 5, 1 g/L hexanoic acid), 0.608 g/L. Also, the consumption of xylose entry in test [1] (hexanoic acid added to medium with 20 g/L glucose and 10 g/L xylose, FIG. 8) was “increased remarkably”. In test [2], the “lipid production (in words)” value is “not increased significantly”. Also, the “consumption rate of the carbon source glucose” value is “increased” in test [2] (20 g/L glucose, 28° C., FIG. 1) and “increased” in test [3] (Example 2, 1 g/L hexanoic acid, 20 g/L glucose, 28° C., FIG. 1). Further, the “increase of lipid production as compared to Comparative Example 1” value in test [2] (144-168 hours, FIG. 2) is “about 10%”. Moreover, the “content of oleic acid in the produced lipids” value is 66% in test [2] (FIG. 3) and approximately 61% in test [3] (Example 2, 1 g/L hexanoic acid, FIG. 3). Moreover, the “increase of lipid production as compared to Comparative Example 2” value in test [3] (1 g/L hexanoic acid, 144-168 hours, FIG. 2) is on record as “about 10%”. Further, the intracellular lipid content in test [3] (Example 2, 1 g/L hexanoic acid, 50.3% without hexanoic acid (Comparative Example 2)) turned out to be 73.8%. Also, in test [3] (Example 2, recombinant strain plus 1 g/L hexanoic acid, FIG. 4), the “relative oleic acid production as compared to Comparative Example 1 (wild-type strain, medium not comprising hexanoic acid)” value is on record as “about 3.3 times”.
